From ChEMBL document CHEMBL4420063, “Pgam1 inhibitors and methods related thereto” (2014)

Columns and labels:
[1] = system: NHDF; test: Antiproliferative activity against NHDF cells assessed as reduction in cell number up to 40 uM by trypan blue exclusion based assay; conditions: human
[2] = system: HFF; test: Antiproliferative activity against HFF cells assessed as reduction in cell number up to 40 uM by trypan blue exclusion based assay; conditions: human
[3] = system: HaCaT; test: Antiproliferative activity against human HaCaT cells assessed as reduction in cell number up to 40 uM by trypan blue exclusion based assay
[4] = Antiproliferative activity against human PIG1 cells assessed as reduction in cell number up to 40 uM by trypan blue exclusion based assay
[5] = Toxicity in ip dosed athymic nude-Foxn1nu mouse dosed for 4 weeks assessed as well-tolerated dose level; assay type: organism-based; conditions: in vivo, 672 h
[6] = Toxicity in athymic nude-Foxn1nu mouse assessed as effect on body weight at 100 mg/kg/day, ip for 7 days; assay type: organism-based; conditions: in vivo, 168 h
[7] = Toxicity in athymic nude-Foxn1nu mouse assessed as effect on complete blood counts at 100 mg/kg/day, ip for 7 days; assay type: organism-based; conditions: in vivo, 168 h
[8] = Toxicity in athymic nude-Foxn1nu mouse assessed as effect on hematopoietic parameters at 100 mg/kg/day, ip for 7 days; assay type: organism-based; conditions: in vivo, 168 h
[9] = Toxicity in athymic nude-Foxn1nu mouse assessed as effect on kidney at 100 mg/kg/day, ip for 7 days by H and E staining based histo-pathological analysis; assay type: organism-based; conditions: in vivo, 168 h
[10] = system: PBMC; test: Antiproliferative activity against PBMC from healthy human assessed as reduction in cell viability at 10 to 20 uM by MTT assay; assay type: cell-based
[11] = Antiproliferative activity against CD34-positive blood stem/progenitor cells from healthy human assessed as reduction in cell viability at 20 uM by trypan blue exclusion based assay
[12] = system: NCI-H1299; test: Inhibition of cell proliferation in human NCI-H1299 cells assessed as reduction in cell number by MTT assay; assay type: functional, cell-based
[13] = system: KG-1a; test: Inhibition of cell proliferation in human KG1a cells assessed as reduction in cell number by MTT assay; assay type: functional, cell-based
[14] = Inhibition of cell proliferation in human Tu212LN cells assessed as reduction in cell number by MTT assay; assay type: functional, cell-based
[15] = Toxicity in athymic nude-Foxn1nu mouse assessed as effect on lung at 100 mg/kg/day, ip for 7 days by H and E staining based histo-pathological analysis; assay type: organism-based; conditions: in vivo, 168 h
[16] = Toxicity in athymic nude-Foxn1nu mouse assessed as effect on liver at 100 mg/kg/day, ip for 7 days by H and E staining based histo-pathological analysis; assay type: organism-based; conditions: in vivo, 168 h
[17] = Toxicity in athymic nude-Foxn1nu mouse assessed as effect on spleen at 100 mg/kg/day, ip for 7 days by H and E staining based histo-pathological analysis; assay type: organism-based; conditions: in vivo, 168 h
[18] = system: KG-1a; test: Inhibition of cell proliferation in human KG1a cells assessed as reduction in cell number by trypan blue exclusion based assay; assay type: functional

For `O=C1c2ccccc2C(=O)c2c1cc(S(=O)(=O)Nc1ccc(C(F)(F)F)cc1)c(O)c2O`, the Activity [1] was “Non-Toxic”, the Activity [2] was “Non-Toxic” and the Activity [3] was “Non-Toxic”. For the same molecule, the Activity [4] was “Non-Toxic”, the Activity [5] was 100 mg/kg/day and the Activity [6] was “Non-Toxic”. For the same molecule, the Activity [7] was “Non-Toxic”, the Activity [8] was “Non-Toxic” and the Activity [9] was “Non-Toxic”. The Activity [10] was “Non-Toxic”, the Activity [11] was “Non-Toxic” and the IC50 [12] was 25.6 µM. For the same molecule, the IC50 [13] was 17.1 µM, the IC50 [14] was 26.5 µM and the Activity [15] was “Non-Toxic”. For the same molecule, the Activity [16] was “Non-Toxic” and the Activity [17] was “Non-Toxic”.

`O=C1c2ccccc2C(=O)c2c1ccc(O)c2O` [ATHRAQUINONES A] showed an IC50 [18] of 58.6 µM and an IC50 [13] of 60.2 µM.
